# Laboratory results reported in patent publication US20170232083A1, “METHODS OF DIAGNOSIS AND TREATMENT OF CELIAC DISEASE IN CHILDREN” (priority 2014, published 2017).
# Key:
# [1] = tested on: PBMC (polyclonal gluten-specific T cells) of paediatric and adult CD patients; settings: corresponding adult data shown for comparison (14); cited from earlier work
# [2] = tested on: PBMC (polyclonal gluten-specific T cells) of paediatric and adult CD patients; assay: IFN-γ ELISpot of PBMC after 3 day oral wheat challenge (SFU, % of maximal peptide response, dominance scores, EC50; Examples 5-6); format: cell-based, human; settings: for Dominance score 3-5yrs (n = 9): CD children 3-5yrs, n = 9, following wheat challenge; for Dominance score 3-5yrs (n = 9) / Dominance score 6-10yrs (n = 10) / Dominance score 11-18yrs (n = 11): mean percentage of maximal peptide response; for Dominance score 6-10yrs (n = 10): CD children 6-10yrs, n = 10, following wheat challenge; for Dominance score 11-18yrs (n = 11): CD children 11-18yrs, n = 11, following wheat challenge; for Dominance score Mean all ages: CD children, following wheat challenge (Table 9); for dominance hierarchy across all age groupings: Example 5; for dominance hierarchy across all age groups: Example 6; for response to native vs deamidated form: all age groups; for Dominance scores 3-5 yrs: children with celiac disease 3-5 yrs after wheat challenge (Table 14); for Dominance scores 6-10 yrs: children with celiac disease 6-10 yrs after wheat challenge (Table 14); for Dominance scores 11-18 yrs: children with celiac disease 11-18 yrs after wheat challenge (Table 14); for Dominance scores Mean all ages: mean of all subjects (Table 14); for IFN-γ ELISpot responses Day 0 prior to vs Day 6 after wheat challenge: p<0.05, Kruskal Wallis; for IFN-γ ELISpot response: after oral wheat challenge
sequence,measurement,setting,value
"LQPFPQPELPYPQP [Peptide W02, contains DQ2.5-glia-a1a and a2]",Dominance scores 18+ yrs,[1],58
same,"magnitude of T cell responses, HLA-DQ2.5 homozygous vs heterozygous",[2],significantly greater
same,EC50 compared between age groups,"[2]; 17 children (3-5, 6-10, 11-18 yrs) and four adults, dose curve 0.1-50 ug/ml",a difference was observed between 3-5 yrs and 6-10 yrs
same,Dominance score 3-5yrs (n = 9),[2],74.8
same,Dominance score 6-10yrs (n = 10),[2],56.9
same,Dominance score 11-18yrs (n = 11),[2],59.6
same,Dominance score Mean all ages,[2],63.3
same,dominance hierarchy across all age groupings,[2],most dominant three peptides
same,dominance hierarchy across all age groups,[2],most dominant four peptides
same,response to native vs deamidated form,[2],Deamidation enhanced the response
same,Dominance scores 3-5 yrs,[2],77
same,Dominance scores 6-10 yrs,[2],57
same,Dominance scores 11-18 yrs,[2],60
same,Dominance scores Mean all ages,[2],64
same,IFN-γ ELISpot responses Day 0 prior to vs Day 6 after wheat challenge,[2],Significant gluten-specific responses were observed on Day 6 only
"QPFPQPEQPFPWQ [Peptide W03, contains DQ2.5-glia-w1 and w2]",Dominance scores 18+ yrs,[1],35
same,"magnitude of T cell responses, HLA-DQ2.5 homozygous vs heterozygous",[2],significantly greater
same,Dominance score 3-5yrs (n = 9),[2],66.6
same,Dominance score 6-10yrs (n = 10),[2],51.5
same,Dominance score 11-18yrs (n = 11),[2],46.5
same,Dominance score Mean all ages,[2],54.2
same,dominance hierarchy across all age groupings,[2],most dominant three peptides
same,CD children responding (polyclonal T cells after oral wheat challenge),"[2]; Example 5, n=22",68.2%
same,dominance hierarchy across all age groups,[2],most dominant four peptides
same,CD children responding (polyclonal T cells induced by oral wheat challenge),"[2]; Example 6, n=22",68%
same,response to native vs deamidated form,[2],Deamidation enhanced the response
same,Dominance scores 3-5 yrs,[2],65
same,Dominance scores 6-10 yrs,[2],51
same,Dominance scores 11-18 yrs,[2],46
same,Dominance scores Mean all ages,[2],54
same,IFN-γ ELISpot responses Day 0 prior to vs Day 6 after wheat challenge,[2],Significant gluten-specific responses were observed on Day 6 only
same,IFN-γ ELISpot response,"[2]; patient A, 11-17 yrs, cut-off 10 SFU",5 SFU
same,Significant response as percentage of maximal peptide SFU,"[2]; patient D, max peptide 30.5 SFU",′′′ (41-70% = ′′′)
same,IFN-γ ELISpot response,"[2]; patient E, H, 11-17 yrs, cut-off 10 SFU",61 SFU
same,Significant response as percentage of maximal peptide SFU,"[2]; patient E, max peptide 224 SFU",′′ (21-40% = ′′)
same,IFN-γ ELISpot response,"[2]; patient F, 11-17 yrs, cut-off 10 SFU",77 SFU
same,Significant response as percentage of maximal peptide SFU,"[2]; patient F, max peptide 178 SFU",′′′ (41-70% = ′′′)
same,IFN-γ ELISpot response,"[2]; patient G, 11-17 yrs, cut-off 10 SFU",5 SFU
same,IFN-γ ELISpot response,"[2]; patient H (HLA-DQ2.5 homozygote), 3-5yrs, cut-off 10 SFU",48 SFU
same,IFN-γ ELISpot response,"[2]; patient H, 11-17 yrs, cut-off 10 SFU",6 SFU
same,IFN-γ ELISpot response,"[2]; patient ID not given, 11-17 yrs, cut-off 10 SFU",83 SFU
same,Significant response as percentage of maximal peptide SFU,"[2]; patient ID not given, max peptide 95 SFU",+ (>70% = +)
same,Significant response as percentage of maximal peptide SFU,"[2]; patient J, max peptide 196 SFU",′′′ (41-70% = ′′′)
same,Significant response as percentage of maximal peptide SFU,"[2]; patient K, max peptide 53 SFU",′′ (21-40% = ′′)
same,Significant response as percentage of maximal peptide SFU,"[2]; patient M, max peptide 48 SFU",+ (>70% = +)
same,IFN-γ ELISpot response,"[2]; patient N, 3-5yrs, cut-off 10 SFU",19 SFU
same,Significant response as percentage of maximal peptide SFU,"[2]; patient N, max peptide 19 SFU",+ (>70% = +)
same,IFN-γ ELISpot response,"[2]; patient P, 11-17 yrs, cut-off 21.6 SFU",43 SFU
same,Significant response as percentage of maximal peptide SFU,"[2]; patient P, max peptide 64 SFU",′′′ (41-70% = ′′′)
same,IFN-γ ELISpot response,"[2]; patient Q, 11-17 yrs, cut-off 10 SFU",54 SFU
same,Significant response as percentage of maximal peptide SFU,"[2]; patient Q, max peptide 97 SFU",′′′ (41-70% = ′′′)
same,IFN-γ ELISpot response,"[2]; patient U, H, 11-17 yrs, cut-off 10 SFU",34 SFU
same,Significant response as percentage of maximal peptide SFU,"[2]; patient U, max peptide 81 SFU",′′′ (41-70% = ′′′)
same,IFN-γ ELISpot response,"[2]; patient V, 6-10 yrs, cut-off 10 SFU",34 SFU
same,Significant response as percentage of maximal peptide SFU,"[2]; patient V, max peptide 35 SFU",+ (>70% = +)
same,IFN-γ ELISpot response,"[2]; patient Y, 6-10 yrs, cut-off 10 SFU",8 SFU
same,IFN-γ ELISpot response,"[2]; patient eleven, 6-10 yrs, cut-off 10 SFU",6 SFU
same,Significant response as percentage of maximal peptide SFU,"[2]; patient five, max peptide 48 SFU",+ (>70% = +)
same,IFN-γ ELISpot response,"[2]; patient four, 3-5yrs, cut-off 10 SFU",18 SFU
same,Significant response as percentage of maximal peptide SFU,"[2]; patient four, max peptide 44 SFU",′′′ (41-70% = ′′′)
same,IFN-γ ELISpot response,"[2]; patient seven, 6-10 yrs, cut-off 10.5 SFU",4 SFU
same,IFN-γ ELISpot response,"[2]; patient ten, 3-5yrs, cut-off 10 SFU",8 SFU
same,IFN-γ ELISpot response,"[2]; patient three, 6-10 yrs, cut-off 10.5 SFU",13 SFU
same,IFN-γ ELISpot response,"[2]; patient twelve, 11-17 yrs, cut-off 10 SFU",17 SFU
same,IFN-γ ELISpot response,"[2]; patient two, 3-5yrs, cut-off 10 SFU",60 SFU
same,Significant response as percentage of maximal peptide SFU,"[2]; patient two, max peptide 60 SFU",+ (>70% = +)
